Assay type in all cases: functional
The test system of one test is Aspergillus sydowii. Briefly: Antimicrobial activity against Aspergillus sydowii MTCC 4335 assessed as growth inhibition after 5 days by broth microdilution method. A general note: Dilution methods test growth across graded concentrations, often in twofold steps.
A further test relates to Aspergillus parasiticus. Briefly: Antimicrobial activity against Aspergillus parasiticus MTCC 2797 assessed as growth inhibition after 5 days by broth microdilution method.
For a further test, the system named is Aspergillus niger. Briefly: Antimicrobial activity against Aspergillus niger MTCC 404 assessed as growth inhibition after 5 days by broth microdilution method.
The subject of the next test is Pichia kudriavzevii. Description: Antimicrobial activity against Pichia kudriavzevii MTCC 231 assessed as growth inhibition after 24 hr by broth microdilution method.
The test system of the next test is Candida albicans. Description: Antimicrobial activity against Candida albicans MTCC 3017 assessed as growth inhibition after 24 hr by broth microdilution method.
The next test concerns Enterobacter cloacae. Description: Antimicrobial activity against Enterobacter cloacae MTCC 509 assessed as growth inhibition after 24 hr by broth microdilution method.
For another test, the system named is Pseudomonas aeruginosa. Description: Antimicrobial activity against Pseudomonas aeruginosa MTCC 424 assessed as growth inhibition after 24 hr by broth microdilution method.
A further test deals with Klebsiella pneumoniae. Briefly: Antimicrobial activity against Klebsiella pneumoniae MTCC 109 assessed as growth inhibition after 24 hr by broth microdilution method.
The next test concerns Escherichia coli. Description: Antimicrobial activity against Escherichia coli MTCC 43 assessed as growth inhibition after 24 hr by broth microdilution method.
The next test has as its system Burkholderia cepacia. Briefly: Antimicrobial activity against Burkholderia cepacia MTCC 438 assessed as growth inhibition after 24 hr by broth microdilution method.
The test system of another test is Micrococcus luteus. Description: Antimicrobial activity against Micrococcus luteus MTCC 2470 assessed as growth inhibition after 24 hr by broth microdilution method.
The test system of a further test is Bacillus subtilis. Briefly: Antimicrobial activity against Bacillus subtilis MTCC 121 assessed as growth inhibition after 24 hr by broth microdilution method.
In a further test the test system is Staphylococcus aureus. Description: Antimicrobial activity against Staphylococcus aureus MTCC 3160 assessed as growth inhibition after 24 hr by broth microdilution method.
The next test deals with Trichophyton rubrum. Description: Antimicrobial activity against Trichophyton rubrum MTCC 296 assessed as growth inhibition after 5 days by broth microdilution method.

Molecules are shown by their SMILES. Converted amounts (≈) assume the structure as drawn. The source made the active and inactive calls. No cut-off for these calls is given here.

A word on the MIC: it is the lowest concentration found to suppress growth.

Consider `C/C=C/c1ccc2c(c1)OCO2` [ISOSAFROLE], for which the MIC entry in the test on Aspergillus sydowii, in the test with Aspergillus parasiticus, in the test with Aspergillus niger, in the test on Pichia kudriavzevii, in the test on Candida albicans and with Enterobacter cloacae was “inactive” each time. For the same compound, the MIC result in the test on Pseudomonas aeruginosa, with Klebsiella pneumoniae, with Escherichia coli, in the test with Burkholderia cepacia, in the test with Micrococcus luteus and with Bacillus subtilis was “inactive” throughout. Besides, the MIC result in the test with Staphylococcus aureus is “inactive”. Moreover, in the test on Trichophyton rubrum (MTCC 296, 120 h), the MIC amounted to 3.08 mM (≈ 500 µg/mL).
On to `CN(C)c1ccc(/C=C/C=O)cc1`, for which the MIC entry in the test with Aspergillus sydowii, in the test on Aspergillus parasiticus, in the test on Aspergillus niger, with Pichia kudriavzevii, in the test on Candida albicans and in the test on Pseudomonas aeruginosa was “inactive” each time. Moreover, the MIC result in the test with Klebsiella pneumoniae, with Escherichia coli, in the test with Burkholderia cepacia, in the test on Bacillus subtilis, with Staphylococcus aureus and in the test with Trichophyton rubrum was “inactive” each time. Also, the MIC with Enterobacter cloacae (MTCC 509, 24 h) was 11.4 mM (≈ 2000 µg/mL); with Micrococcus luteus (MTCC 2470, 24 h), 11.4 mM (≈ 2000 µg/mL).
For `O=C/C=C/c1ccccc1` [CINNAMALDEHYDE], the MIC in the test with Aspergillus sydowii (MTCC 4335, 120 h) stood at 3.78 mM (≈ 500 µg/mL); in the test on Aspergillus parasiticus (MTCC 2797, 120 h), 3.78 mM (≈ 500 µg/mL); in the test on Aspergillus niger (MTCC 404, 120 h), 1890 µM (≈ 250 µg/mL); in the test on Pichia kudriavzevii (MTCC 231, 24 h), 470 µM (≈ 62.1 µg/mL); with Candida albicans (MTCC 3017, 24 h) it was 470 µM (≈ 62.1 µg/mL); in the test on Enterobacter cloacae (MTCC 509, 24 h) it was 1.89 mM (≈ 250 µg/mL). Moreover, the MIC was 1890 µM (≈ 250 µg/mL) in the test on Pseudomonas aeruginosa (MTCC 424, 24 h); 3.78 mM (≈ 500 µg/mL) in the test on Klebsiella pneumoniae (MTCC 109, 24 h); 1.89 mM (≈ 250 µg/mL) in the test on Escherichia coli (MTCC 43, 24 h); 1.89 mM (≈ 250 µg/mL) in the test on Burkholderia cepacia (MTCC 438, 24 h); 3.78 mM (≈ 500 µg/mL) in the test with Micrococcus luteus (MTCC 2470, 24 h); 1.89 mM (≈ 250 µg/mL) with Bacillus subtilis (MTCC 121, 24 h). Also, the MIC came to 1.89 mM (≈ 250 µg/mL) with Staphylococcus aureus (MTCC 3160, 24 h) and 0.47 mM (≈ 62.1 µg/mL) in the test with Trichophyton rubrum (MTCC 296, 120 h).
As to `O=CCCc1ccccc1` [DIHYDROCINNAMALDEHYDE], the MIC in the test with Aspergillus sydowii (MTCC 4335, 120 h) was determined as 3.72 mM (≈ 499 µg/mL); in the test with Aspergillus parasiticus (MTCC 2797, 120 h), 14.9 mM (≈ 2000 µg/mL); in the test with Aspergillus niger (MTCC 404, 120 h), 7450 µM (≈ 1000 µg/mL); with Pichia kudriavzevii (MTCC 231, 24 h), 3720 µM (≈ 499 µg/mL); with Candida albicans (MTCC 3017, 24 h), 3720 µM (≈ 499 µg/mL); in the test with Enterobacter cloacae (MTCC 509, 24 h), 7.45 mM (≈ 1000 µg/mL). Further, the MIC amounted to 7450 µM (≈ 1000 µg/mL) in the test on Pseudomonas aeruginosa (MTCC 424, 24 h); 7.45 mM (≈ 1000 µg/mL) in the test with Klebsiella pneumoniae (MTCC 109, 24 h); 7.45 mM (≈ 1000 µg/mL) in the test on Escherichia coli (MTCC 43, 24 h); 14.9 mM (≈ 2000 µg/mL) in the test on Burkholderia cepacia (MTCC 438, 24 h); 7.45 mM (≈ 1000 µg/mL) in the test on Micrococcus luteus (MTCC 2470, 24 h); 7.45 mM (≈ 1000 µg/mL) with Bacillus subtilis (MTCC 121, 24 h). The MIC in the test on Staphylococcus aureus (MTCC 3160, 24 h) is 14.9 mM (≈ 2000 µg/mL); in the test on Trichophyton rubrum (MTCC 296, 120 h), 3.72 mM (≈ 499 µg/mL).
As for `CCOC(=O)/C=C/c1ccc2c(c1)OCO2`, the MIC stood at 0.14 mM (≈ 30.8 µg/mL) with Aspergillus sydowii (MTCC 4335, 120 h); 0.14 mM (≈ 30.8 µg/mL) in the test on Aspergillus parasiticus (MTCC 2797, 120 h); 560 µM (≈ 123 µg/mL) with Aspergillus niger (MTCC 404, 120 h); 560 µM (≈ 123 µg/mL) in the test on Pseudomonas aeruginosa (MTCC 424, 24 h). The MIC entry with Pichia kudriavzevii, in the test with Candida albicans, in the test with Enterobacter cloacae, in the test on Klebsiella pneumoniae, with Escherichia coli and in the test with Burkholderia cepacia was “inactive” each time. Also, the MIC result in the test with Micrococcus luteus, in the test on Bacillus subtilis, in the test on Staphylococcus aureus and with Trichophyton rubrum was “inactive” throughout.
Regarding `CC(C)OC(=O)/C=C/c1ccccc1`, the MIC entry in the test with Aspergillus sydowii, with Aspergillus parasiticus, in the test on Aspergillus niger, with Pichia kudriavzevii, in the test on Candida albicans and in the test on Enterobacter cloacae was “inactive” each time. Also, the MIC result in the test on Pseudomonas aeruginosa, with Klebsiella pneumoniae, in the test on Escherichia coli, in the test on Burkholderia cepacia, in the test on Micrococcus luteus and in the test with Bacillus subtilis was “inactive” each time. Further, the MIC entry with Staphylococcus aureus and with Trichophyton rubrum was “inactive” throughout.

(Values after ChEMBL document CHEMBL3046948, “Synthesis and SAR investigation of natural phenylpropene-derived methoxylated cinnamaldehydes and their novel Schiff bases as potent antimicrobial and antioxidant agents” (2013).)
